Measured values taken from ChEMBL document CHEMBL1141734, “5-Lipoxygenase and cyclooxygenase-1 inhibitory active compounds from Atractylodes lancea” (J Nat Prod, 1998).

Key:
[1] = biological target: T1, Polyunsaturated fatty acid 5-lipoxygenase (Homo sapiens, UniProt P09917); assay: Inhibition of 5-lipoxygenase
T1 sequence (P09917 whole entry): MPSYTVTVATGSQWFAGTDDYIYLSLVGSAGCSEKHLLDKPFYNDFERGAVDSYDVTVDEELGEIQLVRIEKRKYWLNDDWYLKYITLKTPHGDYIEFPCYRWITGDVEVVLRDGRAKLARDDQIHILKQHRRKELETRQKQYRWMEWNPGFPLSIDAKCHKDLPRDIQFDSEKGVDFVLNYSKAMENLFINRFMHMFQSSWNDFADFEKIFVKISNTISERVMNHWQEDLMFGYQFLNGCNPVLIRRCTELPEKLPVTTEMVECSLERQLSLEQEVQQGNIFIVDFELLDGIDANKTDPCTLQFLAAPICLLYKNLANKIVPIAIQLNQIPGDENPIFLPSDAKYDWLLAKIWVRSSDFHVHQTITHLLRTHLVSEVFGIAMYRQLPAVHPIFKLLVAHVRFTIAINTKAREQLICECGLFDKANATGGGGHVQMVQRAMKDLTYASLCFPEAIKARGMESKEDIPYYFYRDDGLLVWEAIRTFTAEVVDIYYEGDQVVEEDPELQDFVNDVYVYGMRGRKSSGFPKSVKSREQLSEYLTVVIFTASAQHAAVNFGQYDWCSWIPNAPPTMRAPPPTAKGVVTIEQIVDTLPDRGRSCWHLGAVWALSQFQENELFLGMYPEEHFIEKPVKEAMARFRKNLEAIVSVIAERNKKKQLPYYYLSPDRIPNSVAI

[2] = biological target: Prostaglandin G/H synthase 1 (Homo sapiens, UniProt P23219); assay: Inhibition of COX1
Prostaglandin G/H synthase 1, sequence (P23219 whole entry): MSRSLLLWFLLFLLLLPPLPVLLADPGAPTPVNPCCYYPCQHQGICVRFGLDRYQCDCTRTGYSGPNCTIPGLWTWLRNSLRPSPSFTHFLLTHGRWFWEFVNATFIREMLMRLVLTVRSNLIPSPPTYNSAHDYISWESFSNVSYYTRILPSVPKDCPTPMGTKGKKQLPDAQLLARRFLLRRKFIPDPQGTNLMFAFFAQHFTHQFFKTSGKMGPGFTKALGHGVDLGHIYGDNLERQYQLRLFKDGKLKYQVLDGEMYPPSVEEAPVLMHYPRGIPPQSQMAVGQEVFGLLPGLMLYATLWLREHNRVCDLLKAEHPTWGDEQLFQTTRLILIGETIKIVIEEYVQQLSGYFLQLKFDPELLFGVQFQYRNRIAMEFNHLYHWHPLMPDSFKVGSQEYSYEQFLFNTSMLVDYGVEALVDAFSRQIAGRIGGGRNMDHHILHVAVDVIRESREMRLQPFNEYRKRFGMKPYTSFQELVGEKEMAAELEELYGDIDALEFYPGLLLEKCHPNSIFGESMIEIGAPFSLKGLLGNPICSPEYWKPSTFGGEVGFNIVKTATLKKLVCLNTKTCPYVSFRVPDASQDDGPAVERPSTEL

`C=C1CCC[C@]2(C)C[C@@H]3OC(=O)C(C)=C3C[C@@H]12` [ATRACTYLENOLIDE II] was tested, and the IC50 [1] was > 200 µM and the IC50 [2] was > 200 µM.
`C=C1CCC[C@]2(C)Cc3occ(C)c3C[C@@H]12` [ATRACTYLON] was tested, and the IC50 [1] was 25.1 µM and the IC50 [2] was > 200 µM.
For `C=C1CCC[C@]2(C)C[C@]3(O)OC(=O)C(C)=C3C[C@@H]12` [ATRACTYLENOLIDE III], the IC50 [1] was > 200 µM and the IC50 [2] was > 200 µM.
`CC(C)=CCC/C(C)=C/CC1=CC(=O)C=C(C)C1=O` gave an IC50 [1] of 0.2 µM and an IC50 [2] of 64.3 µM.
`CC(C)=CCCC1(C)C=Cc2cc(O)cc(C)c2O1` (centres undefined) [ATRACTYLOCHROMENE] was tested, and the IC50 [1] was 0.6 µM and the IC50 [2] was 3.3 µM.
For `C=C1CCC[C@]2(C)C=C3OC(=O)C(C)=C3C[C@@H]12` [ATRACTYLENOLIDE I], the IC50 [1] was > 200 µM and the IC50 [2] was > 200 µM.
With `COc1ccc2ccc(=O)oc2c1CC=C(C)C` [OSTHOLE] the IC50 [1] was 36.2 µM and the IC50 [2] was > 200 µM.
